Test results from patent publication US7071232B1, “Small molecules that increase the conversion of food to body weight gain” (priority 1998, dated 2006).
“And” between values parts separate entries of the source, which are not always exact repeats. Equal values may be shown once. Read-outs that look alike come from different tables or passages of the source.

Key:
[1] = test system: Peterson×Hubbard male broiler chicks; settings: in vivo
[2] = test system: Peterson×Hubbard male broiler chicks; settings: in vivo; remark: listed apart in the source
[3] = test system: Avian x Ross broiler chicks; assay: Second experiment, less environmental stress: feed efficiency ratios through day 14; format: in vivo; settings: for Feed efficiency ratio, MEAN: through day 14; for conversion of feed to weight vs saline (in words): day 14

SMILES: NCCC(=O)NCCSSCCNC(=O)CCN [beta-alethine]
- Survival (% Alive) [1]: 96% and 100% and 99% and 98%
- chicks died in one pen [1]: 5
- mortality rate [1]: 0%
- # dead from all causes of death (cumulative) ([1]; sc): 0
- Survival (% Alive) ([1]; sc): 100%
- Deliverable Weight Ratio [2]: 1.367
- Deliverable Weight Ratio, % improvement vs negative control [2]: 10.8%
- Feed Efficiency [2]: 1.298
- Feed Efficiency, % improvement vs negative control [2]: 7.9%
- % decrease over saline control, saline #1 ([3]; 2 pg in ovo vs saline in ovo #1): 0.34%
- % decrease over saline control, saline #2 ([3]; 2 pg in ovo vs saline in ovo #2): −0.34%
- Feed efficiency ratio, MEAN ([3]; 2 pg per bird in ovo): 1.181
- Feed efficiency ratio, MEAN ([3]; 2 pg per bird sc): 1.173
- % decrease over saline control ([3]; 2 pg sc vs saline s.c. control): −0.89%
- % decrease over saline control, saline #1 ([3]; 2 ng in ovo + fed in water (2 ng weekly) vs saline in ovo #1): 2.39%
- % decrease over saline control, saline #2 ([3]; 2 ng in ovo + fed in water (2 ng weekly) vs saline in ovo #2): 1.73%
- Feed efficiency ratio, MEAN ([3]; 2 ng in ovo + fed in water (2 ng weekly)): 1.157
- % decrease over saline control, saline #1 ([3]; 2 ng in ovo vs saline in ovo #1): 3.21%
- conversion of feed to weight vs saline (in words) ([3]; 2 ng in ovo): significantly greater conversion of feed to weight
- Feed efficiency ratio, MEAN ([3]; 2 ng per bird in ovo): 1.147
- Feed efficiency ratio, MEAN ([3]; 2 ng per bird sc): 1.150
- conversion of feed to weight vs saline (in words) ([3]; 2 ng s.c., not significant vs s.c. saline): significantly better than saline given in ovo
- % decrease over saline control ([3]; 2 ng sc vs saline s.c. control): 1.16%
- average decrease in feed efficiency ratios ([3]; normal flock of Avian×Ross broiler chicks): about 4%
